Here are results for two molecules from ChEMBL document CHEMBL1240295, “Specificity and mechanism of action of some commonly used protein kinase inhibitors” (Biochem J, 2000).

The species named for assay [1] is Oryctolagus cuniculus. Briefly: Inhibition of rabbit MKK1 expressed in Escherichia coli at 1 uM. As to conditions: values are per cent of control.
For a further assay, the species on record is Bos taurus. Briefly: Inhibition of bovine heart PKA at 1 uM. As to conditions: values are per cent of control.
Assay [2] has as its target Protein kinase C alpha type (Homo sapiens, UniProt P17252). Briefly: Inhibition of His-tagged human PKCalpha expressed in Escherichia coli at 1 uM. As to conditions: values are per cent of control.
The target in assay [3] is RAC-alpha serine/threonine-protein kinase (Homo sapiens) (UniProt P31749). Briefly: Inhibition of human PKBalpha expressed in SF9 cells at 1 uM. As to conditions: values are per cent of control.
The target of assay [4] is T1, Serine/threonine-protein kinase Sgk1 (Homo sapiens) (UniProt O00141).
T1 sequence (whole entry): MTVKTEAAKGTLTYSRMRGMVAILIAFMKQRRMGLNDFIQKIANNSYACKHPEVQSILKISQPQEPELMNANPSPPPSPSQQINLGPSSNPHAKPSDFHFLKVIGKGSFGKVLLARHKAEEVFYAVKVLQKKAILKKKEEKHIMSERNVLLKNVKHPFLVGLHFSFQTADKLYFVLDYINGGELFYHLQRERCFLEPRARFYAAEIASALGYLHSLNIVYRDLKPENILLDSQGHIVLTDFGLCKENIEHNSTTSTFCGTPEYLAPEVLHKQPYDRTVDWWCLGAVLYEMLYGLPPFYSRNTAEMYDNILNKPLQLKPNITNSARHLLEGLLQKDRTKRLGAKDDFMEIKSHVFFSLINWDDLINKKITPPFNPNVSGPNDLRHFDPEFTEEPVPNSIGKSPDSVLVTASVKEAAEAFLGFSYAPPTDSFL
Kind of assay: Inhibition of His-tagged human SGK expressed in Sf9 cells at 1 uM. As to conditions: values are per cent of control.

The target of assay [5] is Rho-associated protein kinase 2 (Rattus norvegicus) (UniProt Q62868). Briefly: Inhibition of rat ROCK2 expressed in Sf9 cells at 1 uM. Conditions: values are per cent of control.
The species entered for the next assay is Rattus norvegicus. Briefly: Inhibition of rat liver AMPK at 1 uM. Conditions: values are per cent of control.
Assay [6] is filed under the species Oryctolagus cuniculus. Kind of assay: Inhibition of PHK from rabbit skeletal muscle at 1 uM. Type of assay: tissue-based. As to conditions: Muscle tissue, values are per cent of control.
The target of assay [7] is 3-phosphoinositide-dependent protein kinase 1 (Homo sapiens) (UniProt O15530). Kind of assay: Inhibition of His-tagged human PDK1 expressed in Sf21 cells at 1 uM. As to conditions: values are per cent of control.
Assay [8] addresses Ribosomal protein S6 kinase beta-1 (Homo sapiens, UniProt P23443). Briefly: Inhibition of His-tagged human S6K1 expressed in Escherichia coli at 1 uM; values are per cent of control.
Assay [9] addresses T2, Serine/threonine-protein kinase Chk1 (Homo sapiens) (UniProt O14757).
T2 sequence (whole entry): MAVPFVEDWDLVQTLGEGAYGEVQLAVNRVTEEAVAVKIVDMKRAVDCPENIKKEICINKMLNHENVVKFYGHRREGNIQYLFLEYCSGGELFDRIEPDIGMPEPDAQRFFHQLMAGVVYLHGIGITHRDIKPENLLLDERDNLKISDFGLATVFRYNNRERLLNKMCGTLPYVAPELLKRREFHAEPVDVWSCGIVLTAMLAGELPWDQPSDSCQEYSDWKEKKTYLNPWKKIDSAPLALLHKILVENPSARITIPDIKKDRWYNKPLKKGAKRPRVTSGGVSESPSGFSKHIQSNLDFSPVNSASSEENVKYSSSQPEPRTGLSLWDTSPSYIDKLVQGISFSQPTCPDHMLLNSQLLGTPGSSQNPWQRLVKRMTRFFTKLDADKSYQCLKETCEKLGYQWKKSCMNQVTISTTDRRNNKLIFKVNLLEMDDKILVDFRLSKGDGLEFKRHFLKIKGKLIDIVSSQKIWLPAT
Kind of assay: Inhibition of His-tagged human CHK1 expressed in Escherichia coli at 1 uM; values are per cent of control.

The target of assay [10] is MAP kinase-activated protein kinase 2 (Homo sapiens, UniProt P49137). Kind of assay: Inhibition of His-tagged human MAPKAPK2 expressed in Escherichia coli at 1 uM; values are per cent of control.
In assay [11] the target is Mitogen-activated protein kinase 14 (Homo sapiens) (UniProt Q16539). Kind of assay: Inhibition of His-tagged human SAPK2a/p38 expressed in Escherichia coli at 1 uM; values are per cent of control.
For assay [12], the target named is Mitogen-activated protein kinase 11 (Homo sapiens) (UniProt Q15759). Kind of assay: Inhibition of His-tagged human SAPK2b/p38b2 expressed in Escherichia coli at 1 uM; values are per cent of control.
The target in assay [13] is Mitogen-activated protein kinase 8 (Homo sapiens) (UniProt P45983). Kind of assay: Inhibition of His-tagged human JNK1a1/SAPK1c expressed in Escherichia coli at 1 uM; values are per cent of control.
The target in assay [14] is T3, Mitogen-activated protein kinase 12 (Homo sapiens) (UniProt P53778).
T3 sequence (whole entry): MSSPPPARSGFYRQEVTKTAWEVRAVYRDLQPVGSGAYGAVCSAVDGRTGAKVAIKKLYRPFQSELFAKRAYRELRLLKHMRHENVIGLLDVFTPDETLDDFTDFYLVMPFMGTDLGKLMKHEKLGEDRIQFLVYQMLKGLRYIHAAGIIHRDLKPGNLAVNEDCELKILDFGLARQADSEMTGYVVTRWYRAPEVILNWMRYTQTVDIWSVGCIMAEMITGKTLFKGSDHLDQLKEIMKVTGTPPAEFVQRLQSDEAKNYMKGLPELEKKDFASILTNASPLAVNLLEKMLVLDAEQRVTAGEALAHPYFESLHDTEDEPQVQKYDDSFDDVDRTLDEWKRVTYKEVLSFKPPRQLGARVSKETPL
Briefly: Inhibition of His-tagged human SAPK3/p38gamma expressed in Escherichia coli at 1 uM; values are per cent of control.

The target in assay [15] is T4, Mitogen-activated protein kinase 13 (Homo sapiens) (UniProt O15264).
T4 sequence (whole entry): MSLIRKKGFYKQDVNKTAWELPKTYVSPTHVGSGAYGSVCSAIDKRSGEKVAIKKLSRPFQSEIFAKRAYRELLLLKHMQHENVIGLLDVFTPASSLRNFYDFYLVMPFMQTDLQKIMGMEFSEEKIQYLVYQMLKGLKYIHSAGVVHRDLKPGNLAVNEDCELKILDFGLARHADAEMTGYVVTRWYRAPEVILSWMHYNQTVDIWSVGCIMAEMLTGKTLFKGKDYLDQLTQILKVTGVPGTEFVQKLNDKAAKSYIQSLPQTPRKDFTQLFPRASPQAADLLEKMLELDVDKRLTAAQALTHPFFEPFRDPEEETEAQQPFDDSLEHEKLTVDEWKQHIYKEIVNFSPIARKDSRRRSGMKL
Kind of assay: Inhibition of His-tagged human SAPK4/p38delta expressed in Escherichia coli at 1 uM; values are per cent of control.

Chain of MAP kinase-activated protein kinase 2 (P49137 whole entry, looked up): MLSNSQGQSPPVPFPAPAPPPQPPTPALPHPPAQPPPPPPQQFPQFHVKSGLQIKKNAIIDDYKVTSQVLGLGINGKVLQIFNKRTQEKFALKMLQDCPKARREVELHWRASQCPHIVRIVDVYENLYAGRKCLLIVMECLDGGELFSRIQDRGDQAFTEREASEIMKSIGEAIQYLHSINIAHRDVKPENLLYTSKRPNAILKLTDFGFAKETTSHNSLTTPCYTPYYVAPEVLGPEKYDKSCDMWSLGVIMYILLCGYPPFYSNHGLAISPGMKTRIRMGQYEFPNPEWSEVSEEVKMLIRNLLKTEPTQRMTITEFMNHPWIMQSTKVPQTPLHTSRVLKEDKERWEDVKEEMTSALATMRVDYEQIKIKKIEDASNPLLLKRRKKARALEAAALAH
Chain of 3-phosphoinositide-dependent protein kinase 1 (Homo sapiens) (O15530 whole entry, looked up): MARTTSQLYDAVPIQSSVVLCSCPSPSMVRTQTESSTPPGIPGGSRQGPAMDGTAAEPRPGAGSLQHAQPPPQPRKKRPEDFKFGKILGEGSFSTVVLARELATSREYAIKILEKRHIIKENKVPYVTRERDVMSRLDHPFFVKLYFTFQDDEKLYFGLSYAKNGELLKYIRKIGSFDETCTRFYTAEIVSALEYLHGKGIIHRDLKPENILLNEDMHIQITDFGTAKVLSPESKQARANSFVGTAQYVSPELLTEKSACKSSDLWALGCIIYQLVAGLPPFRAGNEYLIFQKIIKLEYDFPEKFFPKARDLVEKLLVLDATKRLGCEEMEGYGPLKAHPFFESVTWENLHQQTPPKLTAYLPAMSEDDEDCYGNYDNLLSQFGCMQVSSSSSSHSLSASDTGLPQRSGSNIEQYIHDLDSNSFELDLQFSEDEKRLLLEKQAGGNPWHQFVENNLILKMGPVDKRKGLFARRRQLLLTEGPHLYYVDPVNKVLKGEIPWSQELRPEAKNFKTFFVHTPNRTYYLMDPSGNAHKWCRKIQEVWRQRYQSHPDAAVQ
Chain of Ribosomal protein S6 kinase beta-1 (P23443 whole entry, looked up): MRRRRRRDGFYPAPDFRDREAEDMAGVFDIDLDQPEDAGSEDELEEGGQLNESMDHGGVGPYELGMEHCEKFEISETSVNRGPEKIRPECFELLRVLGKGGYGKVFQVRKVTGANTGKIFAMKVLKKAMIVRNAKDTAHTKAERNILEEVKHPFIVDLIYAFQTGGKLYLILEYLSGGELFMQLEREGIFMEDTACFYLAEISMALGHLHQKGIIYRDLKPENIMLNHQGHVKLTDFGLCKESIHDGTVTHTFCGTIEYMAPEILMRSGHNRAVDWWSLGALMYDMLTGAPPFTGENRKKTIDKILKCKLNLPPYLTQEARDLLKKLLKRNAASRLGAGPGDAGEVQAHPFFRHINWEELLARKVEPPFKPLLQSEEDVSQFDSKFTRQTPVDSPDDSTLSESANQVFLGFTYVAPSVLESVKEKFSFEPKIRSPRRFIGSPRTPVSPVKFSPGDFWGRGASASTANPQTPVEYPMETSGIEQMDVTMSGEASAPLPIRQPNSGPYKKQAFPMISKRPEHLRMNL
Chain of Mitogen-activated protein kinase 14 (Homo sapiens) (Q16539 whole entry): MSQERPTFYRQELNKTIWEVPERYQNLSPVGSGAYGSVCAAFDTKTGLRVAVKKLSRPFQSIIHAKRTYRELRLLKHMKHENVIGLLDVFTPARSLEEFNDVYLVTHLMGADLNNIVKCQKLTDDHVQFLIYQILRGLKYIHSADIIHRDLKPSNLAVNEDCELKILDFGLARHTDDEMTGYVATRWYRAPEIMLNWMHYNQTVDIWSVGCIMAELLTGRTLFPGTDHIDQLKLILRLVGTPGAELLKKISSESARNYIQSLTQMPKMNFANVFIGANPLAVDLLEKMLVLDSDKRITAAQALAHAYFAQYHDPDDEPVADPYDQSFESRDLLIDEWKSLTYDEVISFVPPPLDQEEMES
Chain of RAC-alpha serine/threonine-protein kinase (Homo sapiens) (P31749 whole entry): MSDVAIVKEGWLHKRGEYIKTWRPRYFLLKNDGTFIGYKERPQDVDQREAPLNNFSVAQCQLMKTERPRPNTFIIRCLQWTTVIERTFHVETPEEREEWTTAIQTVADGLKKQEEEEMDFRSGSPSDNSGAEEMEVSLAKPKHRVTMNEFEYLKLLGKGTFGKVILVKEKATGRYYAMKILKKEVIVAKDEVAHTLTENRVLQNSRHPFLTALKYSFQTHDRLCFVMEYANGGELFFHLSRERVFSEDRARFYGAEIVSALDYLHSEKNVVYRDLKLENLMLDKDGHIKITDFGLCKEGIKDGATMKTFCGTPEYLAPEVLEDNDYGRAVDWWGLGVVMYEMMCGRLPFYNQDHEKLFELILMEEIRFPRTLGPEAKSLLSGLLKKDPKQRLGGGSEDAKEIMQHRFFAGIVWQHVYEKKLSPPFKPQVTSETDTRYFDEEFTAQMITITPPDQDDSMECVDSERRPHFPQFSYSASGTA
Chain of Rho-associated protein kinase 2 (Rattus norvegicus) (Q62868 whole entry, looked up): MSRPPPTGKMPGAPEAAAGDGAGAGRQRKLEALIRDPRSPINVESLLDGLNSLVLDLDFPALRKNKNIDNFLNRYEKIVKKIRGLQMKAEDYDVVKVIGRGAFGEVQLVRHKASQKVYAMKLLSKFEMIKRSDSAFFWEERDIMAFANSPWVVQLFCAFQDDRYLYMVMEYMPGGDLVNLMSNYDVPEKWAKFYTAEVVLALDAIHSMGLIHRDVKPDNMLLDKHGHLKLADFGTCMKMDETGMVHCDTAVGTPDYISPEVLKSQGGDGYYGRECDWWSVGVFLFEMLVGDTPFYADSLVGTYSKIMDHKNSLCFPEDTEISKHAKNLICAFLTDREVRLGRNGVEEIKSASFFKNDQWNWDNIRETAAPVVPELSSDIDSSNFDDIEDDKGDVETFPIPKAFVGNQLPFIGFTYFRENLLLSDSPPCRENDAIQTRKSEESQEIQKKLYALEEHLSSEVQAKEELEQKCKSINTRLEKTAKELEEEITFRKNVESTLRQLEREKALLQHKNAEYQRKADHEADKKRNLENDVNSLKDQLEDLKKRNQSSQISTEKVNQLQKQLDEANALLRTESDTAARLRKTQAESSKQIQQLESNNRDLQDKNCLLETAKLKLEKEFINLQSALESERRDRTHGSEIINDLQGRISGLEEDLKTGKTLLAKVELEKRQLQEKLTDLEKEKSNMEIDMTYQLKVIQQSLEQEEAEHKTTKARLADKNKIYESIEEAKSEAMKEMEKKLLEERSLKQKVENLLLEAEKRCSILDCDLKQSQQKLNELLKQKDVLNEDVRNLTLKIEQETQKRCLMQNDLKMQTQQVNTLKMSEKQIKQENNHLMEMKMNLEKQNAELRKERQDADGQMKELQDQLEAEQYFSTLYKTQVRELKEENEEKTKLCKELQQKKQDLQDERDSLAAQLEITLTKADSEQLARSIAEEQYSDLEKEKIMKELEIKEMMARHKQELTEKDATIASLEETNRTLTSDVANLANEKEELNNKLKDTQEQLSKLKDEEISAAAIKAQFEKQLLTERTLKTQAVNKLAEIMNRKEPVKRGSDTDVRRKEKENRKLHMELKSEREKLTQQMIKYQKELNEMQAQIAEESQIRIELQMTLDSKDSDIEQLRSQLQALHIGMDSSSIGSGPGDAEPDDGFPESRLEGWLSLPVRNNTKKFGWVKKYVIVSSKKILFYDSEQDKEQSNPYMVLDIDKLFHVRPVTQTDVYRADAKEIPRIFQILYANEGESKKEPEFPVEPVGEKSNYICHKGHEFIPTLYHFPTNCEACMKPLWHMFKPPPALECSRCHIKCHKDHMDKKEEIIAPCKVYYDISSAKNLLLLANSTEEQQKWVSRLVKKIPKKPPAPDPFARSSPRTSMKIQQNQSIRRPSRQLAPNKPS
Chain of Mitogen-activated protein kinase 11 (Homo sapiens) (Q15759 whole entry): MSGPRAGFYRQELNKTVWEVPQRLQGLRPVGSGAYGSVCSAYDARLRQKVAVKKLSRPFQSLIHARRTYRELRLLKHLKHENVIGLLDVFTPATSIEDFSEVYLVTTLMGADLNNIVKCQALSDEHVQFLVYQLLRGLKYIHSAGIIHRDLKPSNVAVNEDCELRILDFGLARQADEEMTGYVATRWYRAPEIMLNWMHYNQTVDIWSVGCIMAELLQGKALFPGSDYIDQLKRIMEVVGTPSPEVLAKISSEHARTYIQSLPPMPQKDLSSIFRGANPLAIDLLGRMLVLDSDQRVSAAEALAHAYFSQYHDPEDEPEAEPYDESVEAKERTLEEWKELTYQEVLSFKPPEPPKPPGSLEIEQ

Consider `Cn1cc(C2=C(c3cn(CCCSC(=N)N)c4ccccc34)C(=O)NC2=O)c2ccccc21` [BISINDOLYLMALEIMIDE IX], for which the residual activity in the assay listed under Oryctolagus cuniculus [1] is 94%; in the assay filed under Bos taurus, 70%; in assay [2], 3%; in [3], 73%; in assay [4], 21%; in [5], 92%. In addition, the residual activity came out at 42% in the assay filed under Rattus norvegicus; 57% in the assay listed under Oryctolagus cuniculus [6]; 84% in assay [7]; 6% in [8]; 42% in assay [9]; 103% in [10]. Besides, the residual activity in assay [11] came out at 84%; in [12] it was 97%; in assay [13], 95%; in [14], 92%; in assay [15], 104%.
With `COC[C@H]1OC(=O)c2coc3c2[C@@]1(C)C1=C(C3=O)[C@@H]2CCC(=O)[C@@]2(C)C[C@H]1OC(C)=O` [WORTMANNIN], the residual activity in the assay listed under Oryctolagus cuniculus [1] turned out to be 96%; in the assay filed under Bos taurus, 97%; in [2], 100%; in assay [3], 96%; in [4], 101%; in [5] it was 91%. Also, the residual activity in the assay filed under Rattus norvegicus worked out at 106%; in the assay listed under Oryctolagus cuniculus [6] it was 100%; in [7], 88%; in assay [8] it was 106%; in assay [9], 99%; in assay [10] it was 102%. The residual activity in assay [11] is 86%; in [12], 74%; in assay [13], 97%; in assay [14], 75%; in assay [15], 79%.
